According to patent publication US10077243B2, “Compounds for treating disorders mediated by metabotropic glutamate receptor 5, and methods of use thereof” (Sunovion Pharmaceuticals Inc., priority 2009, dated 2018):

Biological target: T1, human mGluR5 (Homo sapiens, UniProt P41594)
T1 construct: expressed in transfected cells; host or cells: HEK293 cells stably expressing rat GLAST (EAAT1), stably transfected with pcDNAzeo3.1 carrying synthetic human mGluR5 DNA; zeocin-selected single clones
Test: In vitro cell-based FLIPR calcium assay for positive modulation of the activation of mGluR5 by glutamate (PAM EC50)
Conditions: HEK293/GLAST cells expressing recombinant human mGluR5; FLIPR calcium signal; glutamate added at its EC20; read-out: mGluR5 PAM EC50
Source text: The DNA sequences encoding the structural regions for rat mGluR5 [Abe T, Sugihara H, Nawa H, Shigemoto R, Mizuno N, Nakanishi S (1992) “Molecular characterization of a novel metabotropic glutamate receptor mGluR5 coupled to inositol phosphate/Ca^2+ signal transduction” Journal of Biological Chemistry vol. 267, no. 19, pp. 13361-8] and human mGluR5 [Daggett L P, Sacaan A I, Akong M, Rao S P, Hess S D, Liaw C, Urrutia A, Jachec C, Ellis S B, Dreessen J, Knöpfel T, Landwehrmeyer G B, Testa C M, Young A B, Varney M, Johnson E C, Veliçelebi (1995) “Molecular and functional characterization of recombinant human metabotropic glutamate receptor subtype 5” Neuropharmacology vol. 34, no. […] 53, no. 3, pp. 355-369] was obtained from Dr. Michael Robinson of the Children's Hospital of Philadelphia under a Material Transfer Agreement. The pcDNAzeo3.1 vector DNA, carrying either rat mGluR5 or human mGluR5, was used to transfect a sample of the HEK293/GLAST cells, and single clones that express mGluR5 were isolated from the transfected cells using zeocin selection. Expression of mGluR5 was assessed by measurement of the transient fluorescence signal elicited from HEK293/GLAST/mGluR5 cells by glutamate following the loading of the cells with a calcium-sensitive dye using a FLIPR Tetra (Fluorometric Imaging Plate Reader) (Molecular Devices, Sunnyvale, Calif.) [O'Brien J A, Lemaire W, Chen T B, Chang R S, Jacobson M A, Ha S N, Lindsley C W, Schaffhauser H J, Sur C, Pettibone D J, Conn P J, Williams D L Jr. […] 64, no. 3, pp. 731-740; Assay Guidance Manual Version 5.0, 2008, Eli Lilly and Company and NIH Chemical Genomics Center; available online HEK293/GLAST/mGluR5 cells were grown in Dulbecco's Modified Eagle Medium (DMEM) supplemented with 10% dialyzed fetal bovine serum, 20 millimolar (mM) N-2-hydroxyethylpiperazine-N′-2-ethanesulfonic acid (HEPES), penicillin, streptomycin, 1% GlutaMax™ (Invitrogen) and 50 μg/ml zeocin. Cells were grown in the media to 70-80% confluency at 37° C. under 5% CO2, 95% humidity in poly-D-lysine coated coated flasks. Cells for assays were plated into 96-well sterile standard microtiter plates (pre-coated with poly-D-lysine) at a density of 50,000 cells per well in 0.2 milliliters of media. Plated cells were allowed to settle and adhere for 30 minutes at ambient conditions, and then were incubated overnight at 37° C. under 5% CO2, 95% humidity. Several such 96-well plates were typically prepared. On the day of the assays, the components of the FLIPR calcium 4 assay kit (Molecular Devices) were dissolved according to the instructions of the dye kit's manufacturer in assay buffer (Hank's balanced salt solution (HBSS) (Gibco) supplemented with 20 mM HEPES). After removal of the growth media from the first plate, cells were loaded with calcium dye by addition of calcium dye solution (50 microliters per well) and incubation at 25° C. for 45 to 60 minutes. The first plate was placed into the FLIPR Tetra, and a dilution series of glutamate solutions in assay buffer were added to wells on the plate, followed by acquisition of fluorescence data for several minutes. The fluorescence data (maximal signal as a 4-parameter sigmoidal function of log [glutamate]) were processed by non-linear regression methods using the software package GraphPad Prism 5.01 (GraphPad Software Inc.), to yield a glutamate concentration-response curve (CRC). […] These values were, respectively, the concentrations of glutamate that elicit 20%, 50%, and 80% of the maximal FLIPR signal (observed at saturating [glutamate]). The method for measuring the concentration response of a potentiator, or positive allosteric modulator (PAM), is described here as an example. For that purpose, subsequent assays were typically performed using assay buffer containing a glutamate concentration equal to that day's EC20. […] Addition to certain wells of the same buffer containing 0.3% DMSO, but without any test compound, provided a negative control.

T1 sequence (P41594 21-1212): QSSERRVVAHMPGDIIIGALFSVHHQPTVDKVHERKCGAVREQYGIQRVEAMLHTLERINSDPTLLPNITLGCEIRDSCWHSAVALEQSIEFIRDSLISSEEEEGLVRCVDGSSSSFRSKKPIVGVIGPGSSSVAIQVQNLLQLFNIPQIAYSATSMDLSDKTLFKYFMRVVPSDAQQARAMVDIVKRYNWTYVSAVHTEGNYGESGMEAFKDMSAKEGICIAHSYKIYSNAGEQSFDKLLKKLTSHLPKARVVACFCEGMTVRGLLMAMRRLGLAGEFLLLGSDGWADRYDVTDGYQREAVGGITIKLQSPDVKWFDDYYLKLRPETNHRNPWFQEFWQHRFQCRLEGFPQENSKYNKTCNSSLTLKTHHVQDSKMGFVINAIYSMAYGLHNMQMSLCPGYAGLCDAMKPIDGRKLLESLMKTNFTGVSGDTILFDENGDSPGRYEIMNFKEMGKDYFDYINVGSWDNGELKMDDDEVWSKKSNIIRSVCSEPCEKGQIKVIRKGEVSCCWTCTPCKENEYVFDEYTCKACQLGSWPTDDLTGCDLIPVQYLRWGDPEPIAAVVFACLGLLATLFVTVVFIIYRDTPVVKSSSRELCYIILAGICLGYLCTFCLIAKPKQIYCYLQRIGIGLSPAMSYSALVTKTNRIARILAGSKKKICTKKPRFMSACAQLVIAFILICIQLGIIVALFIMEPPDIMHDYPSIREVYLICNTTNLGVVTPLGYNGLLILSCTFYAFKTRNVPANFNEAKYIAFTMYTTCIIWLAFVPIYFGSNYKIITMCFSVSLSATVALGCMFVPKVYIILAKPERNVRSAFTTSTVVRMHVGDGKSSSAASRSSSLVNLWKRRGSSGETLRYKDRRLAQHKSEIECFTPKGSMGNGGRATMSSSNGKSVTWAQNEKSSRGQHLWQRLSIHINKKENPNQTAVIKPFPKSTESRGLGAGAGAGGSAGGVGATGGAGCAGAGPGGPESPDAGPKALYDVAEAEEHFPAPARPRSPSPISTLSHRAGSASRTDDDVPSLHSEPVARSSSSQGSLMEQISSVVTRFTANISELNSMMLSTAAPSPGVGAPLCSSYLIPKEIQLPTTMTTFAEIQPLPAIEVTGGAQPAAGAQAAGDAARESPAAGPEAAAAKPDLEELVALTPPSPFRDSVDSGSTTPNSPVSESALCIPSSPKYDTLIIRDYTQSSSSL

SMILES | EC50
COC1(C)CCc2nc3cc(C#Cc4ccccn4)ccc3c(=O)n2CC1 (single isomer, unassigned) [Example 6.50a/6.50b slower moving enantiomer (fraction 2), 8-methoxy-8-methyl-3-(pyridin-2-ylethynyl)-7,8,9,10-tetrahydroazepino[2,1-b]quinazolin-12(6H)-one] | 10 to 30 nM
O=c1c2ncc(C#Cc3ccccn3)cc2nc2n1CCCCC2 [Example 11.8, 3-(pyridin-2-ylethynyl)-7,8,9,10-tetrahydropyrido[3′,2′:4,5]pyrimido[1,2-a]azepin-12(6H)-one] | 100 to 300 nM
O=c1c2ccc(C#Cc3cccc(F)c3)cc2nc2n1CC/C(=N\O)CC2 [Example 6.23, 3-((3-fluorophenyl)ethynyl)-8-(hydroxyimino)-7,8,9,10-tetrahydroazepino[2,1-b]quinazolin-12(6H)-one] | 30 to 100 nM
O=c1c2ccc(C#Cc3cccc(F)c3)cc2nc2n1CCC1(CC2)OCCO1 [Example 6.34, 3-((3-fluorophenyl)ethynyl)-9,10-dihydro-6H-spiro[azepino[2,1-b]quinazoline-8,2′-[1,3]dioxolan]-12(7H)-one] | 10 to 30 nM
CC1(C)CCc2nc3cc(C#Cc4cccc(F)c4)ccc3c(=O)n2C1 [Example 4.14, 3-((3-fluorophenyl)ethynyl)-8,8-dimethyl-8,9-dihydro-6H-pyrido[2,1-b]quinazolin-11(7H)-one] | < 10 nM
O=c1c2ccc(C#Cc3ccc(F)cc3)cc2nc2n1CCCC2 [Example 4.5, 3-((4-fluorophenyl)ethynyl)-8,9-dihydro-6H-pyrido[2,1-b]quinazolin-11(7H)-one] | < 10 nM
CC1(C)CC(F)c2nc3cc(C#Cc4ccccn4)ccc3c(=O)n2C1 (stereo not shown) [Example 4.47, 6-fluoro-8,8-dimethyl-3-(pyridin-2-ylethynyl)-8,9-dihydro-6H-pyrido[2,1-b]quinazolin-11(7H)-one] | < 10 nM
CCC(C)n1cnc2cc(C#Cc3cccc(F)c3)ccc2c1=O (stereo not shown) [Example 1.19, 3-(sec-butyl)-7-((3-fluorophenyl)ethynyl)quinazolin-4(3H)-one] | < 10 nM
O=c1c2c(nc3cc(C#Cc4ccccc4)ccn13)CCCCCC2 [Example 17.1, 3-(phenylethynyl)-8,9,10,11-tetrahydro-6H-cycloocta[d]pyrido[1,2-a]pyrimidin-12(7H)-one] | < 10 nM
CC1CCc2c(nc3cc(C#Cc4ccccn4)ccn3c2=O)C1 (stereo not shown) [Example 15.2, 3-methyl-7-(pyridin-2-ylethynyl)-3,4-dihydro-1H-pyrido[2,1-b]quinazolin-11(2H)-one] | < 10 nM
CCN1CCc2nc3cc(C#Cc4ccc(F)cc4)ccc3c(=O)n2CC1 [Example 8.2, 3-ethyl-8-((4-fluorophenyl)ethynyl)-2,3,4,5-tetrahydro-[1,4]diazepino[7,1-b]quinazolin-11(1H)-one] | 100 to 300 nM
O=c1c2ccc(C#Cc3ccoc3)cc2nc2n1CCC1(CC2)OCCO1 [Example 7.56] | 30 to 100 nM
COCCn1cnc2cc(C#Cc3ccncc3)ccc2c1=O [Example 1.17, 3-(2-methoxyethyl)-7-(pyridin-4-ylethynyl)quinazolin-4(3H)-one] | 100 to 300 nM
CC(=O)N1CCc2nc3cc(C#Cc4cccc(F)c4)ccc3c(=O)n2CC1 [Example 8.17, 3-acetyl-8-((3-fluorophenyl)ethynyl)-2,3,4,5-tetrahydro-[1,4]diazepino[7,1-b]quinazolin-11(1H)-one] | 100 to 300 nM
Cc1cnc(C#Cc2ccc3c(=O)n4c(nc3c2)CCC(C)CC4)s1 (stereo not shown) [Example 6.8, 8-methyl-3-((5-methylthiazol-2-yl)ethynyl)-7,8,9,10-tetrahydroazepino[2,1-b]quinazolin-12(6H)-one] | 10 to 30 nM
CN1CCCc2nc3cc(C#Cc4cccc(F)c4)ccc3c(=O)n2CC1 [Example 10.4, 9-((3-fluorophenyl)ethynyl)-3-methyl-3,4,5,6-tetrahydro-1H-[1,4]diazocino[8,1-b]quinazolin-12(2H)-one] | 30 to 100 nM

SMILES | EC50
CN1CCn2c(nc3cc(C#Cc4ccccn4)ccc3c2=O)C1 [Example 5.5, 2-methyl-9-(pyridin-2-ylethynyl)-3,4-dihydro-1H-pyrazino[2,1-b]quinazolin-6(2H)-one] | 100 to 300 nM
CN1CCCn2c(nc3cc(C#Cc4ccc(F)cc4)ccc3c2=O)CC1 [Example 10.1, 11-((4-fluorophenyl)ethynyl)-3-methyl-3,4,5,6-tetrahydro-1H-[1,5]diazocino[2,1-b]quinazolin-8(2H)-one] | 10 to 30 nM
O=c1c2ccc(/C=C/c3ccccc3)cc2nc2n1CCCCC2 [Example 20.2, (E)-3-styryl-7,8,9,10-tetrahydroazepino[2,1-b]quinazolin-12(6H)-one] | < 10 nM
COCCn1cnc2cc(C#Cc3cccc(F)c3)cnc2c1=O [Example 11.1, 7-((3-fluorophenyl)ethynyl)-3-(2-methoxyethyl)pyrido[3,2-d]pyrimidin-4(3H)-one] | 30 to 100 nM
N#Cc1cccc(C#Cc2ccc3c(=O)n4c(nc3c2)CCC2(CC4)OCCO2)c1 [Example 7.38] | 30 to 100 nM
O=c1c2ccc(C#Cc3cccc(F)c3)cc2ncn1CC1CC1 [Example 1.8, 3-(cyclopropylmethyl)-7-((3-fluorophenyl)ethynyl) quinazolin-4(3H)-one] | 30 to 100 nM
O=c1c2ccc(C#Cc3ccccn3)cc2nc2n1CC1CC21 (stereo not shown) [Example 4.27, 4-(pyridin-2-ylethynyl)-9,9a-dihydro-1H-cyclopropa[3,4]pyrrolo[2,1-b]quinazolin-7(1aH)-one] | 30 to 100 nM
CC1(C)CCc2nc3cc(/C=C/c4ccccc4F)ccc3c(=O)n2C1 [Example 20.12, (E)-3-(2-fluorostyryl)-8,8-dimethyl-8,9-dihydro-6H-pyrido[2,1-b]quinazolin-11(7H)-one] | 30 to 100 nM
CC1(C)CCn2c(nc3cc(C#Cc4cccc(F)c4)ccc3c2=O)C1 [Example 4.13, 3-((3-fluorophenyl)ethynyl)-7,7-dimethyl-8,9-dihydro-6H-pyrido[2,1-b]quinazolin-11(7H)-one] | < 10 nM
O=c1c2ccc(C#Cc3ccccn3)cc2nc2n1CCC(C(F)(F)F)CC2 (stereo not shown) [Example 6.38, 3-(pyridin-2-ylethynyl)-8-(trifluoromethyl)-7,8,9,10-tetrahydroazepino[2,1-b]quinazolin-12(6H)-one] | 30 to 100 nM
O=c1c2c(nc3cc(C#Cc4ccncc4)ccn13)CCCCCC2 [Example 17.4, 3-(pyridin-4-ylethynyl)-8,9,10,11-tetrahydro-6H-cycloocta[d]pyrido[1,2-a]pyrimidin-12(7H)-one] | < 10 nM
O=CN1CCc2nc3cc(C#Cc4cccc(F)c4)ccc3c(=O)n2CC1 [Example 8.18, 8-((3-fluorophenyl)ethynyl)-11-oxo-1,2,4,5-tetrahydro-[1,4]diazepino[7,1-b]quinazoline-3(11H)-carbaldehyde] | 30 to 100 nM
O=C(Nc1ccc2c(=O)n3c(nc2c1)CCCCCC3)c1ccc(F)cc1 [Example 24.1, 4-fluoro-N-(13-oxo-7,8,9,10,11,13-hexahydro-6H-azocino[2,1-b]quinazolin-3-yl)benzamide] | 300 to 1000 nM
Cc1cnc(NC(=O)c2ccc3c(=O)n4c(nc3c2)CCOCC4)s1 [Example 23.2, N-(5-methylthiazol-2-yl)-11-oxo-2,4,5,11-tetrahyrdo-1H-[1,4]oxazepino[5,4-b]quinazoline-8-carboxamide] | 100 to 300 nM
Cc1ccsc1C#Cc1ccc2c(=O)n3c(nc2c1)CCC1(CC3)OCCO1 [Example 7.58] | 300 to 1000 nM
